In patent US12077503B2, “Substituted cyclic amides and their use as herbicides” (FMC CORPORATION, priority 2015, dated 2024):

Tests used:
Format in all cases: in vivo
Kochia (Kochia scoparia) [1] = assay: Test A preemergence; conditions: Bassia scoparia, pre-emergence, 240 h, Preemergence
In short: (§1)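 Preemergence soil spray on seeded pots or post-emergence spray on 1–2 leaf plants, in loam–sand blend. Greenhouse ~10 d. Visual rating 0–100 against untreated plants.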

[2] = test system: barnyardgrass (Echinochloa crus-galli); assay: Test A preemergence; conditions: Echinochloa crus-galli, pre-emergence, 240 h, Preemergence
In short: as §1

[3] = test system: giant foxtail (Setaria faberii); assay: Test A preemergence; conditions: Setaria faberi, pre-emergence, 240 h, Preemergence
In short: as §1

[4] = test system: pigweed (Amaranthus retroflexus); assay: Test A preemergence; conditions: Amaranthus retroflexus, pre-emergence, 240 h, Preemergence
[5] = test system: ragweed (common ragweed, Ambrosia elatior); assay: Test A preemergence; conditions: Ambrosia artemisiifolia, pre-emergence, 240 h, Preemergence
In short: as §1

[6] = test system: ryegrass, Italian (Italian ryegrass, Lolium multiflorum); assay: Test A preemergence; conditions: Lolium multiflorum, pre-emergence, 240 h, Preemergence
In short: as §1

[7] = test system: Galium (catchweed bedstraw, Galium aparine); assay: Test A postemergence; conditions: Galium, post-emergence, 240 h, Postemergence, read-out: Plant response rating, Galium
In short: as §1

Kochia (Kochia scoparia) [8] = assay: Test A postemergence; conditions: Bassia scoparia, post-emergence, 240 h, Postemergence, read-out: Plant response rating, Kochia
In short: as §1

[9] = test system: barnyardgrass (Echinochloa crus-galli); assay: Test A postemergence; conditions: Echinochloa crus-galli, post-emergence, 240 h, Postemergence, read-out: Plant response rating, Barnyardgrass
In short: as §1

[10] = test system: blackgrass (Alopecurus myosuroides); assay: Test A postemergence; conditions: Alopecurus myosuroides, post-emergence, 240 h, Postemergence, read-out: Plant response rating, Blackgrass
In short: as §1

corn (Zea mays) = assay: Test A postemergence; conditions: Zea mays, post-emergence, 240 h, Postemergence
In short: as §1

[11] = test system: giant foxtail (Setaria faberii); assay: Test A postemergence; conditions: Setaria faberi, post-emergence, 240 h, Postemergence, read-out: Plant response rating, Foxtail, Giant
In short: as §1

[12] = test system: pigweed (Amaranthus retroflexus); assay: Test A postemergence; conditions: Amaranthus retroflexus, post-emergence, 240 h, Postemergence, read-out: Plant response rating, Pigweed
In short: as §1

[13] = test system: ragweed (common ragweed, Ambrosia elatior); assay: Test A postemergence; conditions: Ambrosia artemisiifolia, post-emergence, 240 h, Postemergence, read-out: Plant response rating, Ragweed
In short: as §1

[14] = test system: ryegrass, Italian (Italian ryegrass, Lolium multiflorum); assay: Test A postemergence; conditions: Lolium multiflorum, post-emergence, 240 h, Postemergence, read-out: Plant response rating, Ryegrass, Italian
In short: as §1

[15] = test system: wheat (Triticum aestivum); assay: Test A postemergence; conditions: Triticum aestivum, post-emergence, 240 h, Postemergence, read-out: Plant response rating, Wheat
In short: as §1

[16] = test system: barnyardgrass (Echinochloa crus-galli); assay: Test B flooded paddy test; conditions: Echinochloa crus-galli, Flood, 250 g ai/ha; scale of 0 to 100 where 0 is no effect and 100 is complete control; read-out: Barnyardgrass plant response rating
In short: (§2)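 Response scored visually against untreated controls, 0 = no effect and 100 = complete control, 13–15 d after treatment in the greenhouse. Compounds added to paddy water held 3 cm above soil surface. Treatment given at 2-leaf stage.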

[17] = test system: ducksalad (Heteranthera limosa); assay: Test B flooded paddy test; conditions: Heteranthera limosa, Flood, 250 g ai/ha; scale of 0 to 100 where 0 is no effect and 100 is complete control; read-out: Ducksalad plant response rating
In short: as §2

rice (Oryra sativa) = assay: Test B flooded paddy test; conditions: Oryza sativa, Flood, 250 g ai/ha; scale of 0 to 100 where 0 is no effect and 100 is complete control; read-out: Rice plant response rating
In short: as §2

[18] = test system: sedge, umbrella (small-flower umbrella sedge, Cyperus difformis); assay: Test B flooded paddy test; conditions: Cyperus difformis, 250 g ai/ha, Flood; 0 to 100 scale where 0 is no effect and 100 is complete control; read-out: Sedge, Umbrella plant response rating
In short: as §2

[19] = 125 g ai/ha, visual injury after approximately 10 d, 0 to 100 scale where 0 is no effect and 100 is complete control
[20] = 31 g ai/ha, visual injury after approx. 10 d, 0 to 100 scale, 0 no effect, 100 complete control

O=C(Nc1cccc(F)c1F)[C@H]1C(=O)N(OCc2ccccc2)CC[C@@H]1c1cccc(Cl)c1 [Compound 997]
0%: pest or weed control at 125 g/ha (Kochia (Kochia scoparia) [1]; 125 g ai/ha, visual injury rating after approximately 10 d, read-out: Kochia plant response rating (0 to 100 scale, 0 is no effect, 100 is complete control)) | pest or weed control at 31 g/ha (Kochia (Kochia scoparia) [1]; 31 g ai/ha, 0 to 100 scale (0 no effect, 100 complete control), read-out: Plant response rating, Kochia) | pest or weed control at 125 g/ha ([2]; 125 g ai/ha, visual injury rating after approximately 10 d, read-out: Barnyardgrass plant response rating (0 to 100 scale, 0 is no effect, 100 is complete control)) | pest or weed control at 31 g/ha ([2]; 31 g ai/ha, 0 to 100 scale (0 no effect, 100 complete control), read-out: Plant response rating, Barnyardgrass) | pest or weed control at 125 g/ha ([3]; 125 g ai/ha, visual injury rating after approximately 10 d, read-out: Foxtail, Giant plant response rating (0 to 100 scale, 0 is no effect, 100 is complete control)) | pest or weed control at 31 g/ha ([3]; 31 g ai/ha, 0 to 100 scale (0 no effect, 100 complete control), read-out: Plant response rating, Foxtail, Giant) | pest or weed control at 125 g/ha ([4]; 125 g ai/ha, visual injury rating after approximately 10 d, read-out: Pigweed plant response rating (0 to 100 scale, 0 is no effect, 100 is complete control)) | pest or weed control at 31 g/ha ([4]; 31 g ai/ha, 0 to 100 scale (0 no effect, 100 complete control), read-out: Plant response rating, Pigweed) | pest or weed control at 125 g/ha ([5]; 125 g ai/ha, visual injury rating after approximately 10 d, read-out: Ragweed plant response rating (0 to 100 scale, 0 is no effect, 100 is complete control)) | pest or weed control at 31 g/ha ([5]; 31 g ai/ha, 0 to 100 scale (0 no effect, 100 complete control), read-out: Plant response rating, Ragweed) | pest or weed control at 125 g/ha ([6]; 125 g ai/ha, visual injury rating after approximately 10 d, read-out: Ryegrass, Italian plant response rating (0 to 100 scale, 0 is no effect, 100 is complete control)) | pest or weed control at 31 g/ha ([6]; 31 g ai/ha, 0 to 100 scale (0 no effect, 100 complete control), read-out: Plant response rating, Ryegrass, Italian) | pest or weed control at 125 g/ha [7, 19] | pest or weed control at 31 g/ha [7, 20] | pest or weed control at 125 g/ha (Kochia (Kochia scoparia) [8]; [19]) | pest or weed control at 31 g/ha (Kochia (Kochia scoparia) [8]; [20]) | pest or weed control at 125 g/ha [9, 19] | pest or weed control at 31 g/ha [9, 20] | pest or weed control at 125 g/ha [10, 19] | pest or weed control at 31 g/ha [10, 20] | Corn plant response rating (crop injury, 0 = no effect, 100 = complete kill) at 125 g/ha (corn (Zea mays); [19]) | Corn plant response rating (crop injury, 0 = no effect, 100 = complete kill) at 31 g/ha (corn (Zea mays); [20]) | pest or weed control at 125 g/ha [11, 19] | pest or weed control at 31 g/ha [11, 20] | pest or weed control at 125 g/ha [12, 19] | pest or weed control at 31 g/ha [12, 20] | pest or weed control at 125 g/ha [13, 19] | pest or weed control at 31 g/ha [13, 20] | pest or weed control at 125 g/ha [14, 19] | pest or weed control at 31 g/ha [14, 20] | plant injury at 125 g/ha [15, 19] | plant injury at 31 g/ha [15, 20] | pest or weed control at 250 g/ha [16] | pest or weed control at 250 g/ha [17] | pest or weed control at 250 g/ha (rice (Oryra sativa)) | pest or weed control at 250 g/ha [18]
